The text below walks through data of patent US11420922B2, “Hydroxylated tropolone inhibitors of nucleotidyl transferases in herpesvirus and Hepatitis B and uses therefor” (Saint Louis University, priority 2015, dated 2022).

Data set [1] in a line: Mouse liver microsome assay. The following applies: 1 μM in mouse liver microsomes. Format: in vitro ADME. The procedure, abridged:
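Mouse liver microsomes at 0.25 μM P450 final in 0.1 M potassium phosphate with 3.3 mM MgCl and 1 μM compound, prewarmed 5 min at 37 °C. Reaction started with NADPH (1.2 mM final); aliquots at 0, 5, 10, 20 and 30 min quenched in cold acetonitrile with EDTA or EGTA, analysed by LC/MS/MS.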

The test system of another data set is HSV-1. Kind of data set: Anti-HSV-1 replication assay in Vero cells, titers by plaque assay. Format: cell-based, herpes simplex virus 1. The following applies: Human alphaherpesvirus 1, Vero, 24 h. The procedure, abridged: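 Vero monolayers infected with clinical HSV-1 or HSV-2 isolates at MOI 0.1 with compound present (50 and 5 μM final), 1 h at 37° C, then compound in DMEM for another 23 h. Yield titered by plaque assay on Vero cells; EC50 by nonlinear fit of serial dilutions starting at 50 μM, DMSO controls.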

The subject of the next data set is HSV-2. Kind of data set: Anti-HSV-2 replication assay in Vero cells, titers by plaque assay. The following applies: Human alphaherpesvirus 2, Vero, 24 h. The class given is cell-based, herpes simplex virus 2.
A further data set deals with HBV. Kind of data set: HBV replication assay in HepDES19 cells. The note with it: Hepatitis B virus; HepDES19 cells; read-out: EC50 (HBV assay). Format: cell-based. The protocol:
HBV replication assay. Inhibition of HBV replication was measured in HepDES19 cells as previously described (Cai, et al., 2014). Cells were seeded into 6-well plates and incubated in DMEM/F12, 10% fetal bovine serum (FBS), 1% penicillin/streptomycin (P/S) with 1 μg/ml tetracycline. Tetracycline was withdrawn after 24 hours. The test compound was applied to duplicate wells 48 hours later in medium containing a final DMSO concentration of 1%, and medium containing the compound was refreshed daily for the following two days. Cells were harvested and non-encapsidated nucleic acids were digested with micrococcal nuclease (New England Biolabs). HBV DNA was purified from capsids using QIAamp Cador Pathogen Mini Kit (Qiagen) with proteinase K incubation overnight at 37° C. TaqMan PCR was performed for 40 cycles at an annealing temperature of 60° C. Primers and probe (IDT Inc.) for the plus-polarity strand were: 5′[…]3′ (SEQ ID NO: 1); 5′[…]3′ (SEQ ID NO: 2); 5′/56-FAM/[…]/ZEN/[…]/3IABkFQ (SEQ ID NO: 3). Primers and probe for the minus-polarity strand were: 5′[…]3′ (SEQ ID NO: 4); 5′[…]3′ (SEQ ID NO: 5); 5′/56-FAM/[…]/ZEN/[…]/3IABkFQ (SEQ ID NO: 6).

The next data set concerns Vero cells. The data set can be described thus: Qualitative (visual) Vero cell toxicity. Format: cell-based. The note with it: visual inspection in primary screen, key to t, T not given. The protocol:
Qualitative assessments of cytotoxicity were done visually by inspecting the cells in the primary screening assays. For the quantitative assays, cells were plated in 96-well plates at 1.0×10^4 per well. The next day the compounds were added at 0.78 to 100 μM in a final concentration of 1% (v/v) DMSO, and the cells were incubated for 24 hours under conditions identical to those employed for the viral replication inhibition assays. Mitochondrial toxicity was measured by incubating the cells with 0.25 mg/mL thiazolyl blue tetrazolium bromide (MTT, Sigma Aldrich Chemical Co.), the cultures were incubated for 60 min, metabolites were solubilized in acidic isopropanol, and absorbance was read at 570 nm. CC50 values were calculated by non-linear curve fitting using GraphPad Prism.
Compound toxicity was measured both subjectively and quantitatively. Subjective assessments were done by visually inspecting the infected cells at the end of the 24 h infection window through a phase-contrast microscope.

The test system of a further data set is HSV. Kind of data set: Anti-HSV SAR summary, HSV type not separated. The class given is cell-based, herpes simplex virus. The note with it: grouped by activity at 50, 5 and 0.5 μM. The method, boiled down:
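Confluent monolayers were infected with HSV-1 or HSV-2 at MOI 0.1 in the presence of compound at 50 and 5 µM for 1 h at 37 °C. Compound was then re-added in DMEM/2% newborn calf serum for 23 h more. Yield was titred by plaque assay on Vero cells, with DMSO controls. EC50 values came from serial dilutions starting at 50 µM, fitted by non-linear regression.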

As to `CC(=O)c1cc(O)c(=O)c(O)cc1C` [Compound 110], the Non-P450 turn-over entry in data set [1] is recorded as “No”. Moreover, the half-life at 1 μM in data set [1] (read-out: t ½) was greater than 2 h. The ER in data set [1] (extraction ratio) was found to be 0.22. Also, the CLint scaled at 1 μM in data set [1] (mouse, liver microsomes) came out at 26 mL/min/kg. Moreover, the predicted hepatic clearance at 1 μM in data set [1] (mouse, liver microsomes, read-out: CL ′hep) is 20 mL/min/kg. Further, the results for the log reduction at 5 µM in the data set with HSV-1 (read-out: HSV-1 Log suppression 5 μM) and in the data set with HSV-2 (read-out: HSV-2 Log suppression 5 μM) were -0.47 and -0.65, respectively. Also, the results for the log reduction at 50 µM in the data set with HSV-1 (read-out: HSV-1 Log suppression 50 μM) and in the data set on HSV-2 (read-out: HSV-2 Log suppression 50 μM) were 5.11 and 4.24, respectively. Besides, the concentration giving a half-maximal response (EC50) in the data set with HBV was found to be 340 nM. In addition, the “Vero cell toxicity Qualitative” value in the data set with Vero cells was “t?”. Further, in the data set with HSV, the “anti-HSV SAR group, in words” value is “weakest inhibitors”.
